Measured values as given in the OligoGym collection.
Values joined by “and” are separate entries in the source; they are usually repeats but may differ in a detail not shown here. Equal values may be shown once. After the bases stand the sugars from the 5' end (letter, count) and the backbone: PS all phosphorothioate, else s phosphorothioate and o phosphodiester by linkage. Methylation of C is not given here. e = 2'-O-(2-methoxyethyl) (MOE); k = constrained ethyl (cEt); d = 2'-deoxy (DNA)

Molecular target: IRF4
Conditions: ASO

| Sequence | target mRNA inhibition (MM.1R, 1 µM) | target mRNA inhibition (SK-MEL-28, 4 µM) | also measured |
| --- | --- | --- | --- |
| GTACGAGCACATGTCA (sugars k3 d10 k3, PS) | 0% |  |  |
| GTACTTGCCGCTGTCG (sugars k3 d10 k3, PS) |  | 27% |  |
| GTAGACCACAGTGAAG (sugars k3 d10 k3, PS) |  | 29% |  |
| GTAGAGGAGGAGGACT (sugars k3 d10 k3, PS) |  | 16% |  |
| GTAGGACAGACAAAAA (sugars k3 d10 k3, PS) |  | 23% |  |
| GTAGGAGTGTAACTGA (sugars k3 d10 k3, PS) |  | 41% |  |
| GTAGTATGAGAAACGG (sugars e1 k2 d9 k2 e2, PS) | 29% |  |  |
| GTAGTATGAGAAACGG (sugars k2 d9 e3 k2, PS) | 51% |  |  |
| GTAGTATGAGAAACGG (sugars k3 d9 k3 e1, PS) | 40% |  |  |
| GTAGTATGAGAAACGG (sugars kkdddddddddekeke, PS) | 35% |  |  |
| GTAGTATGAGAAACGG (sugars kkdddddddddkdkdk, PS) | 32% |  |  |
| GTATACATCACTGCAG (sugars k3 d10 k3, PS) |  | 44% |  |
| GTATGTAGCAATGTGA (sugars k3 d10 k3, PS) |  | 21% |  |
| GTATTTATAACCGGTA (sugars k3 d10 k3, PS) | 34% and 36% and 37% | 67% | target mRNA inhibition (MM.1R, 0.0625 µM): -7% and 4% and -9%; target mRNA inhibition (MM.1R, 0.074 µM): -19%; target mRNA inhibition (MM.1R, 0.222 µM): 4%; target mRNA inhibition (MM.1R, 0.25 µM): 8% and 9% and 21%; target mRNA inhibition (MM.1R, 0.666 µM): 7%; target mRNA inhibition (MM.1R, 2 µM): 33%; target mRNA inhibition (MM.1R, 4 µM): 77% and 74% and 75% |
| GTATTTGTCGAGATCA (sugars k3 d10 k3, PS) |  | 59% |  |
| GTCACCTGGCAACCAT (sugars k4 d8 k4, PS) |  | 41% |  |
| GTCACGCAATGGCAAA (sugars k3 d10 k3, PS) | -2% |  |  |
| GTCCACTGAGTACAAA (sugars k3 d10 k3, PS) |  | 13% |  |
| GTCCAGCTGGCTCCGC (sugars k3 d10 k3, PS) |  | 53% |  |
| GTCCCCTCTACTTCAG (sugars k3 d10 k3, PS) |  | 41% |  |
| GTCTACAGAACACAAG (sugars k3 d10 k3, PS) |  | 24% |  |
| GTCTGAGTTGTACAGG (sugars k3 d10 k3, PS) | 52% and 57% |  |  |
| GTGAAGCATCCTTTCC (sugars k3 d10 k3, PS) |  | 63% |  |
| GTGAGATGCGGAGGTT (sugars k3 d10 k3, PS) | 39% |  | target mRNA inhibition (MM.1R, 0.0625 µM): 14%; target mRNA inhibition (MM.1R, 0.25 µM): 12%; target mRNA inhibition (MM.1R, 4 µM): 66% |

| Sequence | target mRNA inhibition (MM.1R, 1 µM) | target mRNA inhibition (SK-MEL-28, 4 µM) | also measured |
| --- | --- | --- | --- |
| GTGATGTCAGGTTTTC (sugars e1 k2 d9 k2 e2, PS) | 48% |  |  |
| GTGATGTCAGGTTTTC (sugars kkdddddddddkdkdk, PS) | 27% |  |  |
| GTGATGTCAGGTTTTC (sugars kkdddddddddkekek, PS) | 40% |  |  |
| GTGCAAAACCAGTACA (sugars k3 d10 k3, PS) |  | 33% |  |
| GTGCAAGCCTCATTCA (sugars k3 d10 k3, PS) | 19% |  |  |
| GTGCAGACCTGAATAG (sugars k3 d10 k3, PS) |  | 14% |  |
| GTGCTCATGGCTGATA (sugars k3 d10 k3, PS) | 24% |  |  |
| GTGCTTGCCAAGCCTA (sugars k3 d10 k3, PS) | 27% and 36% |  |  |
| GTGGAAACGAGAACGC (sugars k3 d10 k3, PS) |  | 3% |  |
| GTGGAACTCTAGTGTC (sugars k3 d10 k3, PS) |  | 12% |  |
| GTGGACACTTTTAGAG (sugars k3 d10 k3, PS) |  | 52% |  |
| GTGTAATGTAGGGATA (sugars k3 d10 k3, PS) |  | 64% |  |
| GTGTCTAAAGTCCCAT (sugars k3 d10 k3, PS) | 18% and 28% |  |  |
| GTGTGCTTGCCAAGCC (sugars kdddddddddkekeke, PS) | 6% and 22% |  |  |
| GTTAACAATATGCTTC (sugars k3 d10 k3, PS) |  | 25% |  |
| GTTAAGTCCCATCTGT (sugars k3 d10 k3, PS) |  | 40% |  |
| GTTACTCACGAGCACC (sugars k3 d10 k3, PS) | -17% |  |  |
| GTTCAAGACAAGGGTT (sugars k3 d10 k3, PS) | 15% |  |  |
| GTTCACAACAGAGCTG (sugars k3 d10 k3, PS) | -16% |  |  |
| GTTCACGAAACACAGT (sugars k3 d10 k3, PS) |  | 63% |  |
| GTTCAGTGTGTTGACC (sugars k3 d10 k3, PS) | 30% |  |  |
| GTTCCAGGAGATATTA (sugars k3 d10 k3, PS) |  | 52% |  |
| GTTCCTGTCACCTGGC (sugars k3 d10 k3, PS) |  | 49% |  |
| GTTCTAGGGTCCTCCT (sugars k3 d10 k3, PS) |  | 50% |  |

| Sequence | target mRNA inhibition (MM.1R, 1 µM) | target mRNA inhibition (SK-MEL-28, 4 µM) | also measured |
| --- | --- | --- | --- |
| GTTGAACCCATCTTGA (sugars k3 d10 k3, PS) |  | 16% |  |
| GTTGACACAGGAGCCG (sugars k3 d10 k3, PS) |  | 53% |  |
| GTTGGCTGGTCTTTGT (sugars kkdddddddddekeke, PS) | 23% |  |  |
| GTTGTAAATGAGTCGG (sugars k2 d9 e3 k2, PS) | 82% |  | target mRNA inhibition (H929, 0.00067 µM): 6%; target mRNA inhibition (H929, 0.002 µM): 21%; target mRNA inhibition (H929, 0.00667 µM): 45%; target mRNA inhibition (H929, 0.02 µM): 57%; target mRNA inhibition (H929, 0.04 µM): 13%; target mRNA inhibition (KMS11, 0.2 µM): 50% and 44%; target mRNA inhibition (MM.1R, 0.074 µM): 26%; target mRNA inhibition (MM.1R, 0.222 µM): 53%; target mRNA inhibition (MM.1R, 0.666 µM): 76%; target mRNA inhibition (MM.1R, 2 µM): 93% |
| GTTGTAAATGAGTCGG (sugars k3 d10 k3, PS) |  | 87% and 81% |  |
| GTTTGTGAAGCATCCT (sugars k3 d10 k3, PS) |  | 65% |  |
| GTTTTAAGAGGCGACT (sugars k3 d10 k3, PS) |  | 33% |  |
| GTTTTTTGACTCAAGA (sugars k3 d10 k3, PS) |  | 67% |  |
| TAAAAGAGGTGCTAGG (sugars k3 d10 k3, PS) |  | 27% |  |
| TAAAAGGTTCCTGTCA (sugars k3 d10 k3, PS) |  | 6% |  |
| TAAACAAGATGAATCC (sugars k3 d10 k3, PS) |  | 44% |  |
| TAAACAGTGCCCAAGC (sugars k3 d10 k3, PS) |  | 41% |  |
| TAAAGGAGTGCAGGAG (sugars k3 d10 k3, PS) |  | -7% |  |
| TAAATTCTAGTTTGCC (sugars k3 d10 k3, PS) |  | 68% |  |
| TAACGAGGTGCCTTAC (sugars k3 d10 k3, PS) | 13% |  |  |
| TAACTAAAACTGCATC (sugars k3 d10 k3, PS) |  | 10% |  |
| TAAGAAGCACTGGCAT (sugars k3 d10 k3, PS) |  | 26% |  |
| TAAGAGGCGACTGCTG (sugars k3 d10 k3, PS) |  | -45% |  |
| TAAGGAACAAGTGTAT (sugars k3 d10 k3, PS) |  | 18% |  |
| TAATCCACAATCAGCA (sugars k3 d10 k3, PS) | -27% |  |  |
| TAATTACTGCTTGAGG (sugars k3 d10 k3, PS) | 62% |  | target mRNA inhibition (MM.1R, 0.074 µM): 9%; target mRNA inhibition (MM.1R, 0.222 µM): 31%; target mRNA inhibition (MM.1R, 0.666 µM): 54%; target mRNA inhibition (MM.1R, 2 µM): 77% |
| TACAAAAACTTGGGTC (sugars k3 d10 k3, PS) |  | 9% |  |
| TACAAGCAGTCATCAC (sugars k3 d10 k3, PS) |  | 29% |  |
| TACAAGGTCTGAGTTG (sugars k3 d10 k3, PS) | -6% |  |  |
